This passage reports fold change and inhibition results from PubChem BioAssay AID588643 (The Scripps Research Institute Molecular Screening Center, 2011).

Structures are written as SMILES. Activity calls are given as the source filed them.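 The calls were made as follows: active = phospho-ERK protein band moved at least 30% up or down from the DMSO-only control band; inactive = the rest.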

The test system of assay [1] is HCT116 phospho-ERK1/2 western blot, 24 h. Put plainly: phospho-ERK1/2 protein level change, either direction, late-stage follow-up, counter-screen for KLF5 inhibitor project, cell-based, HCT116 colorectal carcinoma, chemiluminescent western blot (AID 588643). Particulars: measured here: phospho-ERK fold change vs DMSO; at 10 µM; stronger effect = lower value. Background: The purpose of a counterscreen is to sort out artefacts and off-target activity.

The target of assay [2] is Mitogen-activated protein kinase 1 (Homo sapiens) (UniProt P28482). The assay is described as above. Particulars: HCT116 phospho-ERK1/2 western blot, 24 h; at 10 µM; stronger effect = higher value. Background: Immunoblotting shows a protein as a band on a membrane.

Turning to `CN(C(=O)COC(=O)/C=C/c1cccc([N+](=O)[O-])c1)C1CCS(=O)(=O)C1` (configuration not stated), the fold change in assay [1] amounted to 1.2. In addition, the inhibition (commonly the change of the read-out against control, counted positive when it falls) in assay [2] was -20% (inactive).
